Measurements as given in PubChem BioAssay (NCI).
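Where inhibition never reached the appropriate level, the endpoint shown equals the highest concentration tested. Otherwise, values were interpolated linearly from a five-concentration, 48-hour dose response in 96-well plates. Abbreviation: GI50, concentration required for 50% inhibition of growth. TGI marks complete inhibition of growth.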

test system: DU-145 prostate; assay: DTP human tumour cell line panel, 48 h

| SMILES | TGI [µM] |
| --- | --- |
| O=c1cn[nH]c2nc3ccccc3n12 | > 100 |
| O=c1c(-c2ccccc2)c(SCCN2CCCC2)n(-c2ccccc2)c(=S)n1-c1ccccc1 | > 100 |
| O=C1C(Cl)=C(Cl)C(Cl)(Cl)C(Cl)C1(Cl)Cl (stereo unspecified) | > 100 |
| COc1ccccc1-c1cc(=O)c2c(C)cc(C)nc2[nH]1 | > 100 |
| C=CC(O)(CBr)CCC(Br)C(C)(C)Cl (stereo unspecified) | > 10 |

test system: 786-0 renal; assay: DTP human tumour cell line panel, 48 h

| SMILES | TGI [µM] | GI50 [µM] |
| --- | --- | --- |
| O=c1cn[nH]c2nc3ccccc3n12 | > 100 | – |
| O=c1c(-c2ccccc2)c(SCCN2CCCC2)n(-c2ccccc2)c(=S)n1-c1ccccc1 | > 100 | – |
| O=C1C(Cl)=C(Cl)C(Cl)(Cl)C(Cl)C1(Cl)Cl (stereo unspecified) | > 100 | – |
| COc1ccccc1-c1cc(=O)c2c(C)cc(C)nc2[nH]1 | > 100 | > 100 |
| C=CC(O)(CBr)CCC(Br)C(C)(C)Cl (stereo unspecified) | > 10 | – |

test system: LOX IMVI melanoma; assay: DTP human tumour cell line panel, 48 h

| SMILES | TGI [µM] |
| --- | --- |
| O=c1cn[nH]c2nc3ccccc3n12 | > 100 |
| O=c1c(-c2ccccc2)c(SCCN2CCCC2)n(-c2ccccc2)c(=S)n1-c1ccccc1 | > 100 |
| O=C1C(Cl)=C(Cl)C(Cl)(Cl)C(Cl)C1(Cl)Cl (stereo unspecified) | 41.6 |
| COc1ccccc1-c1cc(=O)c2c(C)cc(C)nc2[nH]1 | > 100 |

test system: HCT-116 colon; assay: DTP human tumour cell line panel, 48 h

| SMILES | TGI [µM] | GI50 [µM] |
| --- | --- | --- |
| O=c1cn[nH]c2nc3ccccc3n12 | > 100 | – |
| O=c1c(-c2ccccc2)c(SCCN2CCCC2)n(-c2ccccc2)c(=S)n1-c1ccccc1 | > 100 | – |
| O=C1C(Cl)=C(Cl)C(Cl)(Cl)C(Cl)C1(Cl)Cl (stereo unspecified) | 42.9 | – |
| COc1ccccc1-c1cc(=O)c2c(C)cc(C)nc2[nH]1 | > 100 | 74.5 |
| C=CC(O)(CBr)CCC(Br)C(C)(C)Cl (stereo unspecified) | > 10 | – |

test system: SNB-75 CNS; assay: DTP human tumour cell line panel, 48 h

| SMILES | TGI [µM] |
| --- | --- |
| O=c1cn[nH]c2nc3ccccc3n12 | > 100 |
| O=c1c(-c2ccccc2)c(SCCN2CCCC2)n(-c2ccccc2)c(=S)n1-c1ccccc1 | > 100 |
| O=C1C(Cl)=C(Cl)C(Cl)(Cl)C(Cl)C1(Cl)Cl (stereo unspecified) | 58.6 |
| C=CC(O)(CBr)CCC(Br)C(C)(C)Cl (stereo unspecified) | > 10 |

test system: SNB-19 CNS; assay: DTP human tumour cell line panel, 48 h

| SMILES | TGI [µM] |
| --- | --- |
| O=c1cn[nH]c2nc3ccccc3n12 | > 100 |
| O=c1c(-c2ccccc2)c(SCCN2CCCC2)n(-c2ccccc2)c(=S)n1-c1ccccc1 | > 100 |
| O=C1C(Cl)=C(Cl)C(Cl)(Cl)C(Cl)C1(Cl)Cl (stereo unspecified) | 61 |
| COc1ccccc1-c1cc(=O)c2c(C)cc(C)nc2[nH]1 | > 100 |
| C=CC(O)(CBr)CCC(Br)C(C)(C)Cl (stereo unspecified) | > 10 |

test system: OVCAR-8 ovarian; assay: DTP human tumour cell line panel, 48 h

| SMILES | TGI [µM] |
| --- | --- |
| O=c1cn[nH]c2nc3ccccc3n12 | > 100 |
| O=c1c(-c2ccccc2)c(SCCN2CCCC2)n(-c2ccccc2)c(=S)n1-c1ccccc1 | > 100 |
| O=C1C(Cl)=C(Cl)C(Cl)(Cl)C(Cl)C1(Cl)Cl (stereo unspecified) | > 100 |
| COc1ccccc1-c1cc(=O)c2c(C)cc(C)nc2[nH]1 | > 100 |
| C=CC(O)(CBr)CCC(Br)C(C)(C)Cl (stereo unspecified) | > 10 |

test system: SK-MEL-5 melanoma; assay: DTP human tumour cell line panel, 48 h

| SMILES | TGI [µM] | GI50 [µM] |
| --- | --- | --- |
| O=c1cn[nH]c2nc3ccccc3n12 | > 100 | – |
| O=C1C(Cl)=C(Cl)C(Cl)(Cl)C(Cl)C1(Cl)Cl (stereo unspecified) | 27.6 | – |
| COc1ccccc1-c1cc(=O)c2c(C)cc(C)nc2[nH]1 | > 100 | 33.7 |
| C=CC(O)(CBr)CCC(Br)C(C)(C)Cl (stereo unspecified) | > 10 | – |

test system: SF-539 CNS; assay: DTP human tumour cell line panel, 48 h

| SMILES | TGI [µM] |
| --- | --- |
| O=c1cn[nH]c2nc3ccccc3n12 | > 100 |
| O=c1c(-c2ccccc2)c(SCCN2CCCC2)n(-c2ccccc2)c(=S)n1-c1ccccc1 | > 100 |
| O=C1C(Cl)=C(Cl)C(Cl)(Cl)C(Cl)C1(Cl)Cl (stereo unspecified) | 32.8 |
| COc1ccccc1-c1cc(=O)c2c(C)cc(C)nc2[nH]1 | > 100 |
| C=CC(O)(CBr)CCC(Br)C(C)(C)Cl (stereo unspecified) | > 10 |

test system: ACHN renal; assay: DTP human tumour cell line panel, 48 h

| SMILES | TGI [µM] |
| --- | --- |
| O=c1cn[nH]c2nc3ccccc3n12 | > 100 |
| O=c1c(-c2ccccc2)c(SCCN2CCCC2)n(-c2ccccc2)c(=S)n1-c1ccccc1 | > 100 |
| O=C1C(Cl)=C(Cl)C(Cl)(Cl)C(Cl)C1(Cl)Cl (stereo unspecified) | > 100 |
| COc1ccccc1-c1cc(=O)c2c(C)cc(C)nc2[nH]1 | > 100 |
| C=CC(O)(CBr)CCC(Br)C(C)(C)Cl (stereo unspecified) | > 10 |

test system: MCF7 breast; assay: DTP human tumour cell line panel, 48 h

| SMILES | TGI [µM] |
| --- | --- |
| O=c1cn[nH]c2nc3ccccc3n12 | > 100 |
| O=c1c(-c2ccccc2)c(SCCN2CCCC2)n(-c2ccccc2)c(=S)n1-c1ccccc1 | > 100 |
| O=C1C(Cl)=C(Cl)C(Cl)(Cl)C(Cl)C1(Cl)Cl (stereo unspecified) | 55 |
| COc1ccccc1-c1cc(=O)c2c(C)cc(C)nc2[nH]1 | > 100 |
| C=CC(O)(CBr)CCC(Br)C(C)(C)Cl (stereo unspecified) | > 10 |

test system: HCT-15 colon; assay: DTP human tumour cell line panel, 48 h

| SMILES | TGI [µM] |
| --- | --- |
| O=c1cn[nH]c2nc3ccccc3n12 | > 100 |
| O=c1c(-c2ccccc2)c(SCCN2CCCC2)n(-c2ccccc2)c(=S)n1-c1ccccc1 | > 100 |
| O=C1C(Cl)=C(Cl)C(Cl)(Cl)C(Cl)C1(Cl)Cl (stereo unspecified) | 98.8 |
| COc1ccccc1-c1cc(=O)c2c(C)cc(C)nc2[nH]1 | > 100 |
| C=CC(O)(CBr)CCC(Br)C(C)(C)Cl (stereo unspecified) | > 10 |

test system: HCC-2998 colon; assay: DTP human tumour cell line panel, 48 h

| SMILES | TGI [µM] |
| --- | --- |
| O=c1cn[nH]c2nc3ccccc3n12 | > 100 |
| O=c1c(-c2ccccc2)c(SCCN2CCCC2)n(-c2ccccc2)c(=S)n1-c1ccccc1 | > 100 |
| O=C1C(Cl)=C(Cl)C(Cl)(Cl)C(Cl)C1(Cl)Cl (stereo unspecified) | 34.9 |
| COc1ccccc1-c1cc(=O)c2c(C)cc(C)nc2[nH]1 | > 100 |
| C=CC(O)(CBr)CCC(Br)C(C)(C)Cl (stereo unspecified) | > 10 |

test system: MALME-3M melanoma; assay: DTP human tumour cell line panel, 48 h

| SMILES | TGI [µM] |
| --- | --- |
| O=c1cn[nH]c2nc3ccccc3n12 | > 100 |
| O=c1c(-c2ccccc2)c(SCCN2CCCC2)n(-c2ccccc2)c(=S)n1-c1ccccc1 | > 100 |
| O=C1C(Cl)=C(Cl)C(Cl)(Cl)C(Cl)C1(Cl)Cl (stereo unspecified) | 49.5 |
| COc1ccccc1-c1cc(=O)c2c(C)cc(C)nc2[nH]1 | > 100 |
| C=CC(O)(CBr)CCC(Br)C(C)(C)Cl (stereo unspecified) | > 10 |

test system: A498 renal; assay: DTP human tumour cell line panel, 48 h

| SMILES | TGI [µM] |
| --- | --- |
| O=c1cn[nH]c2nc3ccccc3n12 | > 100 |
